Results: patent publication US10442803B2, “Tricyclic heterocycles as bet protein inhibitors” (Incyte Corporation, priority 2013, dated 2019)
Counter-ions that a name gives are not always drawn.

System: KMS.12.BM cells
Assay: KMS.12.BM cell viability assay
Type: cell-based
Settings: 72 h; KMS.12.BM human myeloma cells, 3 days, Cell Titer-GLO ATP quantitation; read-out: KMS cellular IC50
Protocol: KMS.12.BM cell line (human myeloma) was purchased from JCRB (Osaka, Japan) and maintained in RPMI with 10% FBS culture medium. To measure the cytotoxic activity of the compounds through ATP quantitation, the KMS.12.BM cells are plated in the RPMI culture medium at 5000 cells/well/per 100 μL into a 96-well polystyrene clear black tissue culture plate (Greiner-bio-one through VWR, NJ), in the presence or absence of a concentration range of test compounds. After 3 days, […] Cell Titer-GLO Luminescent (Promega, Madison, Wis.) cell culture agent is added to each well for 10 minutes at room temperature to stabilize the luminescent signal. This determines the number of viable cells in culture based on quantitation of the ATP present, which signals the presence of metabolically active cells. Luminescence is measured with the Top Count 384 (Packard Bioscience through Perkin Elmer, Boston, Mass.).
IC50 data for the Examples is presented in Table 4 as determined by Assay B1.

SMILES | IC50 [nM]
CCn1ccc(-c2cc3c(ccc4nnc(C)n43)n2Cc2cc(Cl)cc(CN3CCC3)c2)n1 [Example 188, 6-(3-(Azetidin-1-ylmethyl)-5-chlorobenzyl)-7-(1-ethyl-1H-pyrazol-3-yl)-1-methyl-6H-pyrrolo[2,3-e][1,2,4]triazolo[4,3-a]pyridine tris(trifluoroacetate) salt] | ≤ 1000
Cc1cc2c(ccc3nnc(C)n32)n1Cc1ccc(F)cc1 [Example 16, 6-(4-fluorobenzyl)-1,7-dimethyl-6H-pyrrolo[2,3-e][1,2,4]triazolo[4,3-a]pyridine] | ≤ 1000
Cc1nnc2ccc3c(cc(-c4ccn[nH]4)n3Cc3cccc(Cl)c3)n12 [Example 155, 6-(3-chlorobenzyl)-1-methyl-7-(1H-pyrazol-5-yl)-6H-pyrrolo[2,3-e][1,2,4]triazolo[4,3-a]pyridine bis(trifluoroacetate) salt] | ≤ 1000
CN[C@H]1CC[C@H](Nc2cc3c(cc(C)n3Cc3ccccc3)n3c(C)nnc23)CC1 [Example 219, trans-N-(6-Benzyl-1,7-dimethyl-6H-pyrrolo[2,3-e][1,2,4]triazolo[4,3-a]pyridin-4-yl)-N′-methylcyclohexane-1,4-diamine] | ≤ 1000
Cc1cc2c(cc(NC3CCOCC3)c3nnc(C)n32)n1Cc1ccccc1 [Example 146, 6-benzyl-1,7-dimethyl-N-(tetrahydro-2H-pyran-4-yl)-6H-pyrrolo[2,3-e][1,2,4]triazolo[4,3-a]pyridin-4-amine] | 1000 to 10000
Cc1cc2c(cc(N[C@H]3CC[C@H](N(C)C)CC3)c3nnc(C)n32)n1Cc1ccccc1 [Example 220, trans-N′-(6-Benzyl-1,7-dimethyl-6H-pyrrolo[2,3-e][1,2,4]triazolo[4,3-a]pyridin-4-yl)-N,N-dimethylcyclohexane-1,4-diamine] | 1000 to 10000
COc1ccc(Cn2c(C)cc3c2ccc2nnc(C)n23)cc1 [Example 34, 6-(4-methoxybenzyl)-1,7-dimethyl-6H-pyrrolo[2,3-e][1,2,4]triazolo[4,3-a]pyridine] | ≤ 1000
Cc1nnc2ccc3c(cc(C(=O)NCCO)n3Cc3cccc(Cl)c3)n12 [Example 117, 6-(3-Chlorobenzyl)-N-(2-hydroxyethyl)-1-methyl-6H-pyrrolo[2,3-e][1,2,4]triazolo[4,3-a]pyridine-7-carboxamide trifluoroacetate salt] | ≤ 1000
Cc1nnc2ccc3c(cc(-c4ccn(CCC(=O)NC5COC5)n4)n3Cc3cccc(Cl)c3)n12 [Example 168, 3-{3-[6-(3-Chlorobenzyl)-1-methyl-6H-pyrrolo[2,3-e][1,2,4]triazolo[4,3-a]pyridin-7-yl]-1H-pyrazol-1-yl}-N-oxetan-3-ylpropanamide trifluoroacetate salt] | ≤ 1000
Cc1nnc2ccc3c(cc(-c4c[nH]cn4)n3Cc3cccc(Cl)c3)n12 [Example 172, 6-(3-Chlorobenzyl)-7-(1H-imidazol-4-yl)-1-methyl-6H-pyrrolo[2,3-e][1,2,4]triazolo[4,3-a]pyridine bis(trifluoroacetate) salt] | ≤ 1000
Cc1cc2c(cc(NC3CCNCC3)c3nnc(C)n32)n1Cc1ccccc1 [Example 206, 6-Benzyl-1,7-dimethyl-N-piperidin-4-yl-6H-pyrrolo[2,3-e][1,2,4]triazolo[4,3-a]pyridin-4-amine] | ≤ 1000
Cc1cc2c(cc(Nc3ncc[nH]3)c3nnc(C)n32)n1Cc1ccccc1 [Example 253, 6-Benzyl-N-(1H-imidazol-2-yl)-1,7-dimethyl-6H-pyrrolo[2,3-e][1,2,4]triazolo[4,3-a]pyridin-4-amine] | ≤ 1000
Cc1cc2c(ccc3nnc(C)n32)n1Cc1ccc(CN(C)C)cc1 [Example 53, 1-{4-[(1,7-dimethyl-6H-pyrrolo[2,3-e][1,2,4]triazolo[4,3-a]pyridin-6-yl)methyl]phenyl}-N,N-dimethylmethanamine] | 1000 to 10000
Cc1cc2c(cc(Nc3cc[nH]n3)c3nnc(C)n32)n1Cc1ccccc1 [Example 200, 6-Benzyl-1,7-dimethyl-N-1H-pyrazol-3-yl-6H-pyrrolo[2,3-e][1,2,4]triazolo[4,3-a]pyridin-4-amine tris(trifluoroacetate) salt] | ≤ 1000
Cc1cc2c(cc(NC3CCN(C(=O)OC(C)(C)C)CC3)c3nnc(C)n32)n1Cc1ccccc1 [Example 214, tert-Butyl 4-[(6-benzyl-1,7-dimethyl-6H-pyrrolo[2,3-e][1,2,4]triazolo[4,3-a]pyridin-4-yl)amino]piperidine-1-carboxylate] | 1000 to 10000
CNC(=O)c1cc2c(ccc3nnc(C)n32)n1Cc1cc(Cl)cc(CN2CCCC2)c1 [Example 132, 6-[3-Chloro-5-(pyrrolidin-1-ylmethyl)benzyl]-N,1-dimethyl-6H-pyrrolo[2,3-e][1,2,4]triazolo[4,3-a]pyridine-7-carboxamide 2.5×(trifluoroacetate) salt] | ≤ 1000
Cc1cc2c(cc(NC(=O)C3CC3)c3nnc(C)n32)n1Cc1ccccc1 [Example 269, N-(6-Benzyl-1,7-dimethyl-6H-pyrrolo[2,3-e][1,2,4]triazolo[4,3-a]pyridin-4-yl)cyclopropanecarboxamide] | ≤ 1000
Cc1cc2c(cc(NC(=O)C(C)C)c3nnc(C)n32)n1Cc1ccccc1 [Example 270, N-(6-Benzyl-1,7-dimethyl-6H-pyrrolo[2,3-e][1,2,4]triazolo[4,3-a]pyridin-4-yl)isobutyramide] | ≤ 1000
Cc1cc2c(cc(NCC3CN(C(=O)OC(C)(C)C)C3)c3nnc(C)n32)n1Cc1ccccc1 [Example 243, tert-Butyl 3-((6-benzyl-1,7-dimethyl-6H-pyrrolo[2,3-e][1,2,4]triazolo[4,3-a]pyridin-4-ylamino)methyl)azetidine-1-carboxylate] | 1000 to 10000
Cc1cc2c(cc(Nc3ccncc3)c3nnc(C)n32)n1Cc1ccccc1 [Example 255, 6-Benzyl-1,7-dimethyl-N-(pyridin-4-yl)-6H-pyrrolo[2,3-e][1,2,4]triazolo[4,3-a]pyridin-4-amine] | ≤ 1000
Cc1nnc2ccc3c(cc(-c4nccs4)n3Cc3ccccc3)n12 [Example 67, 6-benzyl-1-methyl-7-(1,3-thiazol-2-yl)-6H-pyrrolo[2,3-e][1,2,4]triazolo[4,3-a]pyridine] | ≤ 1000
Cc1nnc2ccc3c(cc(-c4ccn(C5CN(S(=O)(=O)N(C)C)C5)n4)n3Cc3cccc(Cl)c3)n12 [Example 161, 3-{3-[6-(3-Chlorobenzyl)-1-methyl-6H-pyrrolo[2,3-e][1,2,4]triazolo[4,3-a]pyridin-7-yl]-1H-pyrazol-1-yl}-N,N-dimethylazetidine-1-sulfonamide bis(trifluoroacetate) salt] | ≤ 1000
CNC(=O)c1cc2c(ccc3nnc(C)n32)n1Cc1cccc(Cl)c1 [Example 99, 6-(3-chlorobenzyl)-N,1-dimethyl-6H-pyrrolo[2,3-e][1,2,4]triazolo[4,3-a]pyridine-7-carboxamide] | ≤ 1000
CCCNc1cc2c(cc(C)n2Cc2ccccc2)n2c(C)nnc12 [Example 262, 6-Benzyl-N-propyl-1,7-dimethyl-6H-pyrrolo[2,3-e][1,2,4]triazolo[4,3-a]pyridin-4-amine] | 1000 to 10000
Cc1cc2c(cc(NC(N)=O)c3nnc(C)n32)n1Cc1ccc(F)c(F)c1 [Example 234, 1-(6-(3,4-Difluorobenzyl)-1,7-dimethyl-6H-pyrrolo[2,3-e][1,2,4]triazolo[4,3-a]pyridin-4-yl)urea] | ≤ 1000
